Measurements reported in US20030068275A1, “Coordination complexes for detecting analytes, and methods of making and using the same” (priority 2001, published 2003).

Experiment: Detection of nitric oxide with the [Co2(O2CAr^Tol)4(dansylpiperazine)2] fluorescent sensor
Settings: for peak emission intensity wavelength: CH2Cl2, excited at 350 nm
Protocol: Detection of Nitric Oxide with the [Co2(O2CAr^Tol)4(dansylpiperazine)2Fluorescent Sensor. It is believed that in solution [Co2(O2CAr^Tol)4(dansylpiperazine)2] is in equilibrium between two species: the [Co2(μ-O2CAr^Tol)4(dansylpiperazine)2] (paddle-wheel) isomer and the [Co2(μ-O2CAr^Tol)2(O2CAr^Tol)2(dansylpiperazine)2] (windmill) isomer. […] The ability of the [Co2(O2CAr^Tol)4(dansylpiperazine)2] system to act as a nitric oxide sensor was tested. […] The exact reaction that occurs in this experiment has not yet been determined.
The fluorescence response of [Co2(O2CAr^Tol)4(dansylpiperazine)2] after exposure to excess NO in CH2Cl2 was measured spectroscopically. Solutions were excited at 350 nm and the emission spectrum recorded. The peak emission intensity is at 503 nm before exposure NO, but shifts to 513 nm after exposure to NO. Emission spectra, shown in FIG. 5, were recorded at 0, 1, 5, 10, 20, 30, 40, 50, and 60 minutes post exposure to NO. A fluorescence increase of 9.6-fold was observed after 60 minutes.

For “[Co2(μ-O2CAr^Tol)4(dansylpiperazine)2] [[Co2(O2CAr^Tol)4(dansylpiperazine)2]]”, the fluorescence increase (CH2Cl2, excess NO, excited at 350 nm, after 60 minutes) was 9.6 fold, the “peak emission intensity wavelength” value (after exposure to excess NO) was 513 nm and the “peak emission intensity wavelength” value (before exposure to NO) was 503 nm. For the same substance, the “fluorescence in the absence of nitric oxide” value (solution in dichloromethane, before NO (FIG. 4b, left)) was “little to no fluorescence” and the “fluorescence change after exposure to nitric oxide” value (solution in dichloromethane, excess NO (FIG. 4b, right)) was “increase in fluorescence”.
